Experiments:
[1] = Viscosity responsiveness: fluorescence emission spectra of probes in glycerol and methanol; format: physicochemical; conditions: for Emission wavelength: excited at maximum excitation wavelength of each probe; for Fluorescence ratio in glycerol to methanol: probe 1×10^−5 M
How it was run: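 Each probe, from a 1×10^−2 M DMSO stock, was diluted to a final 1×10^−5 M in glycerol and in methanol. Fluorescence emission spectra were then recorded under identical conditions at each probe's maximum excitation wavelength.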

CLIP protein tags = assay: Fluorescence activation of probe after incubation with corresponding protein tag (CLIP); format: biochemical; conditions: probe 5 μM, protein tag 10 μM, 37° C., 1 hr
Protocol: Probes were mixed with corresponding protein tags to obtain mixed samples, in which the final probe concentration was 5 μM, and the final protein tag concentration was 10 μM. The mixed samples were incubated 37° C. for 1 hr, fluorescence spectrophotometer was used to detect the change in fluorescence intensity, and the results are shown in Table 1.
From the quantum yield of probe bound to protein tag, after reacting with the protein tags, the probes of the Examples could be detected to have significant signal enhancement in corresponding excitation transmission channels, the fluorescence activation multiple reached several hundreds to a thousand or more, and the brightness was high, which illustrates that after the probes of the Examples are bound to the protein tags, fluorescence of the probes can be activated, and the probes have good fluorescent molecular switching properties. In contrast, though the fluorescence of the reference probes could also be activated, the quantum yield of activated fluorescence was very low, and the brightness was very poor. In particular, in view of comparison results between probe 98 and reference probe 99, probe 101 and reference probe 102, probe 103 and reference probe 104, probe 105 and reference probe 106, probe 107 and reference probe 108, probe 109 and reference probe 110, probe 111 and reference probe 112, probe 114 and reference probe 115, probe 117 and reference probe 118, probe 120 and reference probe 121 in Table 1, for the same fluorescent dye, when the ligand is connected to the electron donor part of the fluorescent dye, the fluorescence activation brightness of the probe is much higher than the reference probe in which ligand is connected to the electron acceptor part of the fluorescent dye.

[2] = Fluorescence of free probe prior to binding to a protein tag; format: physicochemical
SNAP protein tags = target: T1, SNAP protein tags (Homo sapiens, UniProt P16455, A127T/A154D/C150Q/C62A/E30R/G131K/G132T/G153L/K125A/K32I/L33F/M134L/N157G/Q115S/Q116H/R128A/R135S/S151G/S152D/S159E); assay: Fluorescence activation of probe after incubation with corresponding protein tag (SNAP); format: biochemical; conditions: probe 5 μM, protein tag 10 μM, 37° C., 1 hr
T1 sequence (P16455 1-182 E30R/K32I/L33F/C62A/Q115S/Q116H/K125A/A127T/R128A/G131K/G132T/M134L/R135S/C150Q/S151G/S152D/G153L/A154D/N157G/S159E): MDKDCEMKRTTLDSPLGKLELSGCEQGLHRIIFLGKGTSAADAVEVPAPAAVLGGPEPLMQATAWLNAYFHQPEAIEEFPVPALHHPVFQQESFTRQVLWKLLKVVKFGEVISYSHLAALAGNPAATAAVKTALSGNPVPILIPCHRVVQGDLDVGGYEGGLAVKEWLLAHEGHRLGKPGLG
How it was run: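 Probe (5 μM final) mixed with CLIP or SNAP protein tag (10 μM final) and incubated 1 hr at 37° C. Fluorescence intensity change measured by fluorescence spectrophotometer, with quantum yield of tag-bound probe determined.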

Emission wavelength [1] [nm]	Fluorescence ratio in glycerol to methanol [1]	Quantum yield of free probe [2]	Fluorescence activation multiple (SNAP protein tags)	Quantum yield of probe bound to protein tag (SNAP protein tags)	Structure (SMILES)	Fluorescence activation multiple (CLIP protein tags)	Quantum yield of probe bound to protein tag (CLIP protein tags)
672	189	<0.001	369	0.28	COCCNC(=O)/C(C#N)=C/c1ccc(-c2ccc(N(C)CCOC(=O)NCc3ccc(COc4nc(N)nc5[nH]cnc45)cc3)s2)s1 [probe 78]	–	–
515	103	<0.001	209	0.18	CC(C)(C)OC(=O)/C(C#N)=C/c1ccc2c(c1)SCCN2CCOC(=O)NCc1ccc(COc2nc(N)nc3[nH]cnc23)cc1 [probe 83]	–	–
650	182	<0.001	893	0.78	CN(CCOC(=O)NCc1ccc(COc2nc(N)nc3[nH]cnc23)cc1)c1cc2c(s1)-c1sc(/C=C(/C#N)C(=O)O)cc1C2(C)C [probe 98]	–	–
481	362	<0.001	463	0.37	CN(CCOC(=O)NCc1ccc(COc2nc(N)nc3[nH]cnc23)cc1)c1ccc(/C=C(\C#N)C(=O)O)cc1 [probe 101]	–	–
515	321	<0.001	651	0.27	N#C/C(=C\c1ccc2c(c1)SCCN2CCOC(=O)NCc1ccc(COc2nc(N)nc3[nH]cnc23)cc1)C(=O)O [probe 103]	–	–
555	526	<0.001	564	0.47	CN(CCOC(=O)NCc1ccc(COc2nc(N)nc3[nH]cnc23)cc1)c1cc2sc(/C=C(\C#N)C(=O)O)cc2s1 [probe 107]	–	–
566	341	<0.001	546	0.33	CN(CCOC(=O)NCc1ccc(COc2nc(N)nc3[nH]cnc23)cc1)c1ccc(C#C/C=C(\C#N)C(=O)O)cc1 [probe 109]	–	–
570	621	<0.001	681	0.49	CN(CCOC(=O)NCc1ccc(COc2nc(N)nc3[nH]cnc23)cc1)c1ccc2cc(/C=C(\C#N)C(=O)O)sc2c1 [probe 111]	–	–
625	230	<0.001	328	0.27	CN(CCOC(=O)NCc1ccc(COc2nc(N)nc3[nH]cnc23)cc1)c1ccc2nc(/C=C(\C#N)C(=O)O)sc2c1 [probe 114]	–	–
620	321	<0.001	562	0.39	CN(CCOC(=O)NCc1ccc(COc2nc(N)nc3[nH]cnc23)cc1)c1ccc(-c2ccc(/C=C(\C#N)C(=O)O)s2)cc1 [probe 117]	–	–
656	421	<0.001	469	0.42	CN(CCOC(=O)NCc1ccc(COc2nc(N)nc3[nH]cnc23)cc1)c1ccc(-c2ccc(/C=C(\C#N)C(=O)O)s2)s1 [probe 120]	–	–

Second part, the compound before the results:

Structure (SMILES)	Emission wavelength [1] [nm]	Fluorescence ratio in glycerol to methanol [1]	Quantum yield of free probe [2]	Fluorescence activation multiple (SNAP protein tags)	Quantum yield of probe bound to protein tag (SNAP protein tags)	Fluorescence activation multiple (CLIP protein tags)	Quantum yield of probe bound to protein tag (CLIP protein tags)
CN(CCOC(=O)NCc1ccc(COc2nccc(N)n2)cc1)c1ccc(/C=C(\C#N)C(=O)OC(C)(C)C)cc1 [probe 7]	480	1455	<0.001	–	–	1502	0.23
CN(CCOC(=O)NCc1ccc(COc2nccc(N)n2)cc1)c1ccc(/C=C(\C#N)c2nc3ccccc3o2)cc1 [probe 8]	510	320	0.0018	–	–	68	0.12
CN(CCOC(=O)NCc1ccc(COc2nccc(N)n2)cc1)c1ccc(/C=C(\C#N)c2nc3ccccc3s2)cc1 [probe 9]	531	851	<0.001	–	–	745	0.21
CN1C(=O)/C(=C/c2ccc(N(C)CCOC(=O)NCc3ccc(COc4nccc(N)n4)cc3)cc2)N=C1/C=C/c1ccccc1 [probe 17]	580	402	<0.001	–	–	498	0.15
CN(CCOC(=O)NCc1ccc(COc2nccc(N)n2)cc1)c1ccc(C2=C(C#N)C(=C(C#N)C#N)OC2(C)C)cc1 [probe 20]	535	341	<0.001	–	–	398	0.32
CN(CCOC(=O)NCc1ccc(COc2nccc(N)n2)cc1)c1cc2sc(/C=C(\C#N)C(=O)OC(C)(C)C)cc2s1 [probe 27]	555	1134	<0.001	–	–	665	0.39
CN(CCOC(=O)NCc1ccc(COc2nccc(N)n2)cc1)c1cc2sc(/C=C(\C#N)c3nc4ccccc4o3)cc2s1 [probe 28]	590	1132	<0.001	–	–	551	0.31
CN(CCOC(=O)NCc1ccc(COc2nc(N)nc3[nH]cnc23)cc1)c1ccc(-c2ccc(/C=C(\C#N)c3nc4ccccc4s3)s2)s1 [probe 79]	681	298	<0.001	419	0.31	–	–
N#C/C(=C\c1ccc2c(c1)SCCN2CCOC(=O)NCc1ccc(COc2nc(N)nc3[nH]cnc23)cc1)c1nc2ccccc2o1 [probe 85]	535	187	<0.001	391	0.15	–	–
N#C/C(=C\c1ccc2c(c1)SCCN2CCOC(=O)NCc1ccc(COc2nc(N)nc3[nH]cnc23)cc1)c1nc2ccccc2s1 [probe 86]	550	214	<0.001	413	0.17	–	–
CC1=CC(C)(C)N(CCOC(=O)NCc2ccc(COc3nc(N)nc4[nH]cnc34)cc2)c2ccc(/C=C(\C#N)C(=O)OC(C)(C)C)cc21 [probe 87]	575	209	<0.001	515	0.45	–	–
CC1=CC(C)(C)N(CCOC(=O)NCc2ccc(COc3nc(N)nc4[nH]cnc34)cc2)c2ccc(/C=C(\C#N)c3nc4ccccc4s3)cc21 [probe 89]	612	129	<0.001	421	0.32	–	–
CC1=CC(C)(C)N(CCOC(=O)NCc2ccc(COc3nc(N)nc4[nH]cnc34)cc2)c2ccc(/C=C(\C#N)C(=O)O)cc21 [probe 105]	510	328	<0.001	549	0.41	–	–

— US11209437B2, “Fluorescent probe and preparation method and use thereof” (Fluorescence Diagnosis (shanghai) Biotech Company Ltd., priority 2016, dated 2021)
